Test results published in patent US20220127247A1, “N-(PYRIDIN-2-YL)PYRIDINE-SULFONAMIDE DERIVATIVES AND THEIR USE IN THE TREATMENT OF DISEASE” (NOVARTIS AG, priority 2019, published 2022).

Biological target: T1, delF508-CFTR (Homo sapiens, UniProt P13569, DEL508-508)
T1 construct: expressed in transfected cells
Assay: Measurement of delF508-CFTR-HRP surface expression in CFBE41o- cells
Type: cell-based
Settings: for EC50: HRP-tagged delF508-CFTR in CFBE41o- cells, 24 h with compound, luminescence, 10-point curve, top 10 μM; for Emax: efficacy relative to reference compound 3-(6-(1-(2,2-difluorobenzo[d][1,3]dioxol-5-yl)cyclopropane-1-carboxamido)-3-methylpyridin-2-yl)benzoic acid, CFBE41o- cells, 24 h, read-out: DelF508-CFTR-HRP Amax %
How it was run: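 CFBE41o- cells stably expressing delF508-CFTR with HRP in the fourth extracellular loop, induced with 500 ng/mL doxycycline for 48 h, then treated with compound (top 10 μM, 10-point 3-fold) for 24 h at 37° C. Surface HRP detected by luminescence with cell-impermeant substrate; EC50 from logistic fit of triplicates, normalized to lowest concentration.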

T1 sequence (P13569 with tags, fused parts or gaps DEL508-508): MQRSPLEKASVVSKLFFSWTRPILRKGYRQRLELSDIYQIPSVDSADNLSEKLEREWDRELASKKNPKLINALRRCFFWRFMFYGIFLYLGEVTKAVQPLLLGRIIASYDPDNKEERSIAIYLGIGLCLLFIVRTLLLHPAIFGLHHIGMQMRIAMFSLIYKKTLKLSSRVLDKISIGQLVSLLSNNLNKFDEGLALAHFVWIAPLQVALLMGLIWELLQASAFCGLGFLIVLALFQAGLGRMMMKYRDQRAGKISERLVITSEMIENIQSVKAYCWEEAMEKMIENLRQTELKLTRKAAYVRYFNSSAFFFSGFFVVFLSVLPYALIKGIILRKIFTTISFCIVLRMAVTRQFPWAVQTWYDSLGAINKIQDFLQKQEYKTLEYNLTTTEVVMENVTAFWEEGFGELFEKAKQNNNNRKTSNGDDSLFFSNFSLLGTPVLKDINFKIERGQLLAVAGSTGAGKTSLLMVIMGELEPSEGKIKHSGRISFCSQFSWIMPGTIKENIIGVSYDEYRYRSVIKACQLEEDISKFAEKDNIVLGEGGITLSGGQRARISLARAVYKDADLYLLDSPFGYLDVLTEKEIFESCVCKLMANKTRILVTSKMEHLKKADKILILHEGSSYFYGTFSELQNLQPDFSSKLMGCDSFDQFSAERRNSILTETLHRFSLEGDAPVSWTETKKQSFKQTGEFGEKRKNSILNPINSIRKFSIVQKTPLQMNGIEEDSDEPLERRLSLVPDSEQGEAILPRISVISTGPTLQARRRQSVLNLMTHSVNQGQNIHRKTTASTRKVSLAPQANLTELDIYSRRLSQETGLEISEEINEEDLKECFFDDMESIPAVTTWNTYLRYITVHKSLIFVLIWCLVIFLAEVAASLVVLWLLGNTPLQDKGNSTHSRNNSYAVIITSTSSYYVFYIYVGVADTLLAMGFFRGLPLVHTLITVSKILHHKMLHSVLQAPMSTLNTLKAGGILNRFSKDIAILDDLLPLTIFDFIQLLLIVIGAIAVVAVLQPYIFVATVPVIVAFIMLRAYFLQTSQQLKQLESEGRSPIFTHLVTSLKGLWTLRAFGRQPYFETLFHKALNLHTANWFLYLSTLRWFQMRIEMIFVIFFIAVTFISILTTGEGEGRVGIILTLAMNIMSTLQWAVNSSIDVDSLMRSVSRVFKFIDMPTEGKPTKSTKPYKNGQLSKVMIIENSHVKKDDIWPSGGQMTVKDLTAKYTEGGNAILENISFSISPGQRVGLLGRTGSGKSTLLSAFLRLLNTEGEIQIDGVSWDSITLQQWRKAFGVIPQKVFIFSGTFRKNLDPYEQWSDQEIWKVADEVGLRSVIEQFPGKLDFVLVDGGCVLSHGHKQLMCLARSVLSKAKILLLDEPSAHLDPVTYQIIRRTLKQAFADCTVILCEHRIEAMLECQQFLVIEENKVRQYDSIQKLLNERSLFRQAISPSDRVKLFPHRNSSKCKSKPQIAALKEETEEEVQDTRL

| SMILES | EC50 | Emax |
| --- | --- | --- |
| Cc1ccccc1-c1nc(NS(=O)(=O)c2cccc(N3CCCC(CCCC(=O)O)C3)n2)ccc1C(F)(F)F (stereo not drawn) [Compound 75, 4-(1-(6-(N-(6-(o-tolyl)-5-(trifluoromethyl)pyridin-2-yl)sulfamoyl)pyridin-2-yl)piperidin-3-yl)butanoic Acid] | 2000 nM |  |
| C=Cc1ccccc1-c1nc(NS(=O)(=O)c2cccc(N3CCCC(CCCC(=O)O)C3)n2)ccc1C(F)(F)F (stereo not drawn) [Compound 76, 4-(1-(6-(N-(5-(trifluoromethyl)-6-(2-vinylphenyl)pyridin-2-yl)sulfamoyl)pyridin-2-yl)piperidin-3-yl)butanoic Acid] | 1460 nM |  |
| C=Cc1ccccc1-c1nc(NS(=O)(=O)c2cccc(N3CCC[C@H](CC(=O)OCC)C3)n2)ccc1C(F)(F)F [Compound 77, ethyl (R)-2-(1-(6-(N-(5-(trifluoromethyl)-6-(2-vinylphenyl)pyridin-2-yl)sulfamoyl)pyridin-2-yl)piperidin-3-yl)acetate] | 1450 nM | 945% |
| C=Cc1ccccc1-c1nc(NS(=O)(=O)c2cccc(N3CCC[C@@H](CC(=O)OC)C3)n2)ccc1C(F)(F)F [Compound 78, methyl (S)-2-(1-(6-(N-(5-(trifluoromethyl)-6-(2-vinylphenyl)pyridin-2-yl)sulfamoyl)pyridin-2-yl)piperidin-3-yl)acetate] | 1410 nM |  |
| Cc1ccccc1-c1nc(NS(=O)(=O)c2cccc(N3CCC(CCC(=O)O)CC3)n2)ccc1C(F)(F)F [Compound 79, 3-(1-(6-(N-(6-(o-tolyl)-5-(trifluoromethyl)pyridin-2-yl)sulfamoyl)pyridin-2-yl)piperidin-4-yl)propanoic Acid] | 2910 nM | 330% |
| CCc1ccccc1-c1nc(NS(=O)(=O)c2cccc(N3CCCC(CCC(=O)O)C3)n2)ccc1C(F)(F)F (stereo not drawn) [Compound 82, 3-(1-(6-(N-(6-(2-ethylphenyl)-5-(trifluoromethyl)pyridin-2-yl)sulfamoyl)pyridin-2-yl)piperidin-3-yl)propanoic Acid] | 1040 nM |  |
| CCc1ccccc1-c1nc(NS(=O)(=O)c2cccc(N3CCCC(CCCC(=O)O)C3)n2)ccc1C(F)(F)F (stereo not drawn) [Compound 83, 4-(1-(6-(N-(6-(2-ethylphenyl)-5-(trifluoromethyl)pyridin-2-yl)sulfamoyl)pyridin-2-yl)piperidin-3-yl)butanoic Acid] | 1450 nM |  |
| CCc1ccccc1-c1nc(NS(=O)(=O)c2cccc(N3CCC[C@H](CC(=O)O)C3)n2)ccc1C(F)(F)F [Compound 84, (R)-2-(1-(6-(N-(6-(2-ethylphenyl)-5-(trifluoromethyl)pyridin-2-yl)sulfamoyl)pyridin-2-yl)piperidin-3-yl)acetic Acid] | 1540 nM |  |
| Cc1ccccc1-c1nc(NS(=O)(=O)c2cccc(N3CCCC(CC(=O)O)C3)n2)ccc1C(F)(F)F (stereo not drawn) [Compound 88, 2-(1-(6-(N-(6-(o-tolyl)-5-(trifluoromethyl)pyridin-2-yl)sulfamoyl)pyridin-2-yl)piperidin-3-yl)acetic Acid] | 2040 nM |  |
| CCN(CCCC(=O)O)c1cccc(S(=O)(=O)Nc2ccc(C(F)(F)F)c(-c3ccccc3C(C)C)n2)n1 [Compound 89, 4-(ethyl(6-(N-(6-(2-isopropylphenyl)-5-(trifluoromethyl)pyridin-2-yl)sulfamoyl)pyridin-2-yl)amino)butanoic Acid] | 970 nM |  |
| Cc1ccccc1-c1nc(NS(=O)(=O)c2cccc(N(CCC(=O)O)C(C)C)n2)ccc1C(F)(F)F [Compound 91, 3-(isopropyl(6-(N-(6-(o-tolyl)-5-(trifluoromethyl)pyridin-2-yl)sulfamoyl)pyridin-2-yl)amino)propanoic Acid] | 1670 nM |  |
| Cc1ccccc1-c1nc(NS(=O)(=O)c2cccc(N3CCCCC3CCC(=O)O)n2)ccc1C(F)(F)F (stereo not drawn) [Compound 98, 3-(1-(6-(N-(6-(o-tolyl)-5-(trifluoromethyl)pyridin-2-yl)sulfamoyl)pyridin-2-yl)piperidin-2-yl)propanoic Acid] | 1540 nM |  |
| CCc1ccc(F)cc1-c1nc(NS(=O)(=O)c2cccc(N(CCCCC(=O)O)C(C)C)n2)ccc1C(F)(F)F [Compound 99, 5-((6-(N-(6-(2-ethyl-5-fluorophenyl)-5-(trifluoromethyl)pyridin-2-yl)sulfamoyl)pyridin-2-yl)(isopropyl)amino)pentanoic Acid] | 1330 nM |  |
| Cc1ccc(F)cc1-c1nc(NS(=O)(=O)c2cccc(N(CCCCC(=O)O)C(C)C)n2)ccc1C(F)(F)F [Compound 100, 5-((6-(N-(6-(5-fluoro-2-methylphenyl)-5-(trifluoromethyl)pyridin-2-yl)sulfamoyl)pyridin-2-yl)(isopropyl)amino)pentanoic Acid] | 2490 nM |  |
| Cc1ccccc1-c1nc(NS(=O)(=O)c2cccc(N(CCCCC(=O)O)C(C)C)n2)ccc1C(F)(F)F [Compound 101, 5-(isopropyl(6-(N-(6-(o-tolyl)-5-(trifluoromethyl)pyridin-2-yl)sulfamoyl)pyridin-2-yl)amino)pentanoic Acid] | 1590 nM |  |
| Cc1ccc(F)cc1-c1nc(NS(=O)(=O)c2cccc(N(CCCC(=O)O)CC3CC3)n2)ccc1C(F)(F)F [Compound 104, 4-((cyclopropylmethyl)(6-(N-(6-(5-fluoro-2-methylphenyl)-5-(trifluoromethyl)pyridin-2-yl)sulfamoyl)pyridin-2-yl)amino)butanoic Acid] | 1280 nM |  |
| CCN(CCC(=O)O)c1cccc(S(=O)(=O)Nc2ccc(C(F)(F)F)c(-c3cc(F)ccc3C3CC3)n2)n1 [Compound 111, 3-((6-(N-(6-(2-cyclopropyl-5-fluorophenyl)-5-(trifluoromethyl)pyridin-2-yl)sulfamoyl)pyridin-2-yl)(ethyl)amino)propanoic Acid] | 1780 nM |  |
| CCCCN(CCCC(=O)O)c1cccc(S(=O)(=O)Nc2ccc(Cl)c(-c3cccnc3C(C)C)n2)n1 [Compound 112, 4-(butyl(6-(N-(3-chloro-2′-isopropyl-[2,3′-bipyridin]-6-yl)sulfamoyl)pyridin-2-yl)amino)butanoic Acid] | 1570 nM |  |
| CCc1ccc(F)cc1-c1nc(NS(=O)(=O)c2cccc(N(CCC(=O)O)C3CC3)n2)ccc1C(F)(F)F [Compound 113, 3-(cyclopropyl(6-(N-(6-(2-ethyl-5-fluorophenyl)-5-(trifluoromethyl)pyridin-2-yl)sulfamoyl)pyridin-2-yl)amino)propanoic Acid] | 1770 nM | 715% |
| CCc1ccc(F)cc1-c1nc(NS(=O)(=O)c2cccc(N(CCC(=O)O)CC3CC3)n2)ccc1C(F)(F)F [Compound 116, 3-((cyclopropylmethyl)(6-(N-(6-(2-ethyl-5-fluorophenyl)-5-(trifluoromethyl)pyridin-2-yl)sulfamoyl)pyridin-2-yl)amino)propanoic Acid] | 1210 nM |  |
| Cc1ccccc1-c1nc(NS(=O)(=O)c2cccc(SCCC(=O)O)n2)ccc1C(F)(F)F [Compound 117, 3-((6-(N-(6-(o-tolyl)-5-(trifluoromethyl)pyridin-2-yl)sulfamoyl)pyridin-2-yl)thio)propanoic Acid] | 2430 nM | 196% |
| CCc1ccc(F)cc1-c1nc(NS(=O)(=O)c2cccc(N(CCC(=O)O)C(C)C)n2)ccc1C(F)(F)F [Compound 119, 3-((6-(N-(6-(2-ethyl-5-fluorophenyl)-5-(trifluoromethyl)pyridin-2-yl)sulfamoyl)pyridin-2-yl)(isopropyl)amino)propanoic Acid] | 1410 nM |  |
| CCc1ccccc1-c1nc(NS(=O)(=O)c2cccc(OC3CCC(C(=O)O)CC3)n2)ccc1C(F)(F)F (stereo not drawn) [Compound 120, 4-((6-(N-(6-(2-ethylphenyl)-5-(trifluoromethyl)pyridin-2-yl)sulfamoyl)pyridin-2-yl)nxy)cyclohexane-1-carboxylic Acid] | 1390 nM | 330% |
| Cc1ccccc1-c1nc(NS(=O)(=O)c2cccc(OCCC(=O)O)n2)ccc1C(F)(F)F [Compound 121, 3-((6-(N-(6-(o-tolyl)-5-(trifluoromethyl)pyridin-2-yl)sulfamoyl)pyridin-2-yl)nxy)propanoic Acid] | 3280 nM | 167% |
| Cc1cccc(C)c1-c1nc(NS(=O)(=O)c2cccc(N3CCC[C@H]3c3nnn[nH]3)n2)ccc1Cl [Compound 124, (S)-6-(2-(1H-tetrazol-5-yl)pyrrolidin-1-yl)-N-(5-chloro-6-(2,6-dimethylphenyl)pyridin-2-yl)pyridine-2-sulfonamide] | 1730 nM | 297% |
| Cc1ccccc1-c1nc(NS(=O)(=O)c2cccc(N(C)CC3(C(=O)O)CCCC3)n2)ccc1C(F)(F)F [Compound 130, 1-((methyl(6-(N-(6-(o-tolyl)-5-(trifluoromethyl)pyridin-2-yl)sulfamoyl)pyridin-2-yl)amino)methyl)cyclopentane-1-carboxylic Acid] | 2060 nM | 403% |
| CCC(NC(=O)C1CCC(Nc2cccc(S(=O)(=O)Nc3ccc(Cl)c(-c4ccccc4C)n3)n2)CC1)C(=O)O (stereo not drawn) [Compound 136, 2-(4-((6-(N-(5-chloro-6-(o-tolyl)pyridin-2-yl)sulfamoyl)pyridin-2-yl)amino)cyclohexane-1-carboxamido)butanoic Acid] | 2310 nM | 952% |
| Cc1ccccc1-c1nc(NS(=O)(=O)c2cccc(N(C)CC3(C(=O)O)CCC3)n2)ccc1C(F)(F)F [Compound 137, 1-((methyl(6-(N-(6-(o-tolyl)-5-(trifluoromethyl)pyridin-2-yl)sulfamoyl)pyridin-2-yl)amino)methyl)cyclobutane-1-carboxylic Acid] | 2030 nM |  |
| Cc1ccc(F)cc1-c1nc(NS(=O)(=O)c2cccc(N(C)CC3(C(=O)O)CCOCC3)n2)ccc1C(F)(F)F [Compound 138, 4-(((6-(N-(6-(5-fluoro-2-methylphenyl)-5-(trifluoromethyl)pyridin-2-yl)sulfamoyl)pyridin-2-yl)(methyl)amino)methyl)tetrahydro-2H-pyran-4-carboxylic Acid] | 1980 nM | 463% |
